These compounds were tested against T1, GABA-A receptor; alpha-5/beta-3/gamma-2 (Homo sapiens, UniProt P18507+P28472+P31644) (assay: Binding Assay).
T1 sequence (P31644 whole entry): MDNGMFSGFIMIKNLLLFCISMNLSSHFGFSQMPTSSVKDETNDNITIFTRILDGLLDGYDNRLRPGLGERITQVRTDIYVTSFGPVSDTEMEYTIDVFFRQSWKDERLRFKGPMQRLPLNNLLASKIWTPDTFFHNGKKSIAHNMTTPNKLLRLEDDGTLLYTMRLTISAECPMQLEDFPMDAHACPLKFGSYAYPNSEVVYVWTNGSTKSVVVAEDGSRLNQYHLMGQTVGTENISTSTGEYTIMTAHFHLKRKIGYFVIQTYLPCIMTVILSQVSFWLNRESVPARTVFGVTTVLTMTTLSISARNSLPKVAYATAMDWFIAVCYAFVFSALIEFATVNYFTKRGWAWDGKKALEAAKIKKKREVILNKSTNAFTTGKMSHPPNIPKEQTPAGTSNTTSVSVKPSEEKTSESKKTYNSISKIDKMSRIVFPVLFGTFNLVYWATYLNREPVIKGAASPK
T1 sequence (P18507 whole entry): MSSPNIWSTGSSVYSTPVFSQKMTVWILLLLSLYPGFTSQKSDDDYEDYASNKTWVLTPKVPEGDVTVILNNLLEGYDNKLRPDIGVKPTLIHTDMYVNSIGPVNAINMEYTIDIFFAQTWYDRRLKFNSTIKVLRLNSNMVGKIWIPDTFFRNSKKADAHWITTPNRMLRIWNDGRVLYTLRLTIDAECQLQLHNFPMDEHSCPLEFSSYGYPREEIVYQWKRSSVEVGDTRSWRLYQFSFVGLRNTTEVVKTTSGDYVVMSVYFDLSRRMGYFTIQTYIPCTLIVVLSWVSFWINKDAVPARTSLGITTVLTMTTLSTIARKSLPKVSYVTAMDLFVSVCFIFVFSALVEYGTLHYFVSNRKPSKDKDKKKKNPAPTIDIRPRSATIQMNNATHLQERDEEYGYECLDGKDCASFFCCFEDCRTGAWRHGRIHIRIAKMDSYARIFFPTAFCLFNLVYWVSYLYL
T1 sequence (P28472 whole entry): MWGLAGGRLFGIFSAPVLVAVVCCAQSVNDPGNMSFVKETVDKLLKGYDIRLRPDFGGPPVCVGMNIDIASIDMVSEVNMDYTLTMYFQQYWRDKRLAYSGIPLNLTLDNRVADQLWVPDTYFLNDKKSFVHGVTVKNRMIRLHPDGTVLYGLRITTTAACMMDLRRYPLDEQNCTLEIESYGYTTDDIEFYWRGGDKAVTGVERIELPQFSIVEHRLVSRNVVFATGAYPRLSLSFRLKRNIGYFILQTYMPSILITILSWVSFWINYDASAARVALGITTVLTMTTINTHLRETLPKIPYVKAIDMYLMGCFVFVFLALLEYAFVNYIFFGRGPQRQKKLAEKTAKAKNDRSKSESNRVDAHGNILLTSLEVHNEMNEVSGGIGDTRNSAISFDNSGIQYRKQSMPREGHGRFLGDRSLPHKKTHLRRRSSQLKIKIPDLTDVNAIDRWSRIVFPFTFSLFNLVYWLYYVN
Protocol: Receptor binding assays were performed in 96-well format in deep-well plates. For each 96-well plate one ampule of membrane homogenate was thawed and diluted in binding buffer (50 mM Tris pH=7.4, 100 mM KCl) and 200 μL was dispensed into each well. Radioligand [3H]Ro151788 (Perkin Elmer: NET757250UC) was prepared in binding buffer and added to each well in 50 μL volume to give final concentration of 0.5 nM. Test compounds in suitable concentration(s) were added in additional 50 μL. The final assay volume was 300 μL. Incubation was carried out for 60 minutes at 4° C. For non-specific binding 10 μM unlabeled diazepam was used. After incubation samples were filtered over UniFilter GF/B™ using Filtermate Harvester (Perkin Elmer) and washed with 5×1 mL binding buffer. The plate was dried at 40° C. for an hour and 40 μL Microscint (Perkin Elmer) scintillation cocktail was added to each well. The plate was read in Microbeta (Perkin Elmer).

Ki [nM]	Compound
53.5	Cc1nnn(-c2ccc(C(F)(F)F)nc2)c1COc1cc2c(cn1)CN(CC1CCS(=O)(=O)C1)CC2 (stereo not drawn) [US20250051323, Example 36]
28.5	COc1ccc(-n2nnc(C)c2COc2cc3c(cn2)CN(C2CCOCC2)CC3)cn1 [US20250051323, Example 40]
4.5	Cc1ccc(-c2noc(C)c2COc2cc3c(cn2)CN(C2CCC2)CC3)cn1 [US20250051323, Example 4]
61.5	Cc1ccc(-n2nnc(C)c2COc2cc3c(cn2)CN(CC(C)C)CC3)cn1 [US20250051323, Example 41]
37.9	Cc1nnn(-c2ccc(C(F)(F)F)nc2)c1COc1cc2c(cn1)CN(c1cccnc1)CC2 [US20250051323, Example 37]
28	Cc1ccc(-n2nnc(C)c2COc2cc3c(cn2)CN(C2(C(C)C)COC2)CC3)cn1 [US20250051323, Example 42]
19	CCC1(N2CCc3cc(OCc4c(C)nnn4-c4ccc(C)nc4)ncc3C2)COC1 [US20250051323, Example 43]
12.7	Cc1onc(-c2ccc(C(F)(F)F)nc2)c1COc1cc2c(nn1)CN(C1CCOC1)CC2 (stereo not drawn) [US20250051323, Example 18]

— BindingDB's records for patent US20250051323 (Richter Gedeon, 2025)
